Test results as given in patent publication US10363239B2, “Method for inhibiting growth of cancer cells” (Pain Therapeutics, Inc., priority 2013, dated 2019).
Where two headings read alike, the source gives them in different places.

Key:
[1] = molecular target: FLNA pentapeptide of SEQ ID NO: 1 (Bn-VAKGL) (Homo sapiens, UniProt P21333); experiment: FITC-NLX-based FLNA screening assay (inhibition of FITC-naloxone binding to Bn-VAKGL on streptavidin plates); conditions: 10 nM FITC-NLX
[2] = test system: mu opiate receptor (MOR); experiment: MOR agonist activity using [35S]GTPγS binding assay in striatal membranes; type: biochemical; conditions: for MOR agonist activity ([35S]GTPγS binding), FLNA-Binding Compound as Agonist 1 μM + BFNA: 1 μM compound + 1 μM β-funaltrexamine
Method in brief: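 Striatal membranes (200 μg) were preincubated 5 min at 30 °C in HEPES pH 7.5 with 100 mM NaCl, 1 mM MgCl2 and 0.5 nM [35S]GTPγS, then 5 min more with 0.1–10 μM compound. Gαo was immunoprecipitated and bound radioactivity counted by scintillation.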

[3] = read-out: Percent Binding Inhibition, FLNA-binding compound 0.01 μM
[4] = read-out: Percent Binding Inhibition, FLNA-binding compound 0.1 μM
[5] = read-out: Percent Binding Inhibition, FLNA-binding compound 1 μM
[6] = Series B, 0.1 μM compound, relative to DAMGO
[7] = Series B, 0.1 μM compound, [35S]GTPγS binding to Gαo, striatal membranes
[8] = Series B, 1 μM compound + 1 μM β-FNA
[9] = Series B, 1 μM compound + β-FNA, relative to DAMGO + BFNA
[10] = Series B, 1 μM compound, relative to DAMGO
[11] = Series B, 1 μM compound, [35S]GTPγS binding to Gαo, striatal membranes
[12] = FLNA-binding compound 0.01 μM, read-out: Percent Binding Inhibition
[13] = FLNA-binding compound 0.1 μM, read-out: Percent Binding Inhibition
[14] = FLNA-binding compound 1 μM, read-out: Percent Binding Inhibition
[15] = Series C-1, 0.1 μM compound, relative to DAMGO
[16] = Series C-1, 0.1 μM compound, [35S]GTPγS binding to Gαo, striatal membranes
[17] = Series C-1, 1 μM compound + 1 μM β-FNA
[18] = Series C-1, 1 μM compound + β-FNA, relative to DAMGO + BFNA
[19] = Series C-1, 1 μM compound, relative to DAMGO
[20] = Series C-1, 1 μM compound, [35S]GTPγS binding to Gαo, striatal membranes
[21] = Series C-2, 0.1 μM compound, relative to DAMGO
[22] = Series C-2, 0.1 μM compound, [35S]GTPγS binding to Gαo, striatal membranes
[23] = Series C-2, 1 μM compound + 1 μM β-FNA
[24] = Series C-2, 1 μM compound + β-FNA, relative to DAMGO + BFNA
[25] = Series C-2, 1 μM compound, relative to DAMGO
[26] = Series C-2, 1 μM compound, [35S]GTPγS binding to Gαo, striatal membranes
[27] = 0.1 μM compound relative to DAMGO
[28] = 1 μM compound + BFNA relative to DAMGO + BFNA
[29] = 1 μM compound relative to DAMGO

Compound	inhibition at 0.01 µM [1, 3]	inhibition at 0.1 µM [1, 4]	inhibition at 1 µM [1, 5]	inhibition at 0.01 µM [1, 12]	inhibition at 0.1 µM [1, 13]	inhibition at 1 µM [1, 14]	% DAMGO (0.1 μM) [2, 15]	Concentration of FLNA-Binding Compound as Agonist 0.1 μM [2, 16]	Concentration of FLNA-Binding Compound as Agonist 1 μM + BFNA [2, 17]	% DAMGO + BFNA [2, 18]	% DAMGO (1 μM) [2, 19]	Concentration of FLNA-Binding Compound as Agonist 1 μM [2, 20]	further results
COc1cccc(CCC(=O)CC2c3c(cc4c(c3OC)OCO4)CC[N+]2(C)C)c1 (stereo not drawn) [Compound B0034]	49.1%	54.2%	59.1%										% DAMGO (0.1 μM) [2, 6]: 71.6%; MOR agonist activity, percent [35S]GTPγS binding at the stated compound concentration [2, 7]: 122.5%; MOR agonist activity, percent [35S]GTPγS binding at the stated compound concentration [2, 8]: 41.8%; % DAMGO + BFNA [2, 9]: 80.2%; % DAMGO (1 μM) [2, 10]: 88.1%; MOR agonist activity, percent [35S]GTPγS binding at the stated compound concentration [2, 11]: 235.2%
COc1ccc(CCC(=O)CC2c3c(cc4c(c3OC)OCO4)CC[N+]2(C)C)c(OC)c1 (stereo not drawn) [Compound B0043]	30.8%	39.2%	46.8%										% DAMGO (0.1 μM) [2, 6]: 42.4%; MOR agonist activity, percent [35S]GTPγS binding at the stated compound concentration [2, 7]: 74.8%; MOR agonist activity, percent [35S]GTPγS binding at the stated compound concentration [2, 8]: 166.4%; % DAMGO + BFNA [2, 9]: 632.7%; % DAMGO (1 μM) [2, 10]: 97.6%; MOR agonist activity, percent [35S]GTPγS binding at the stated compound concentration [2, 11]: 248.1%
CNc1ccc(S(=O)(=O)N2CCC3(CC2)OCCN3S(=O)(=O)c2ccc(NC)cc2)cc1 [Compound C0024]				37.9%	46.4%	50.4%	92.8%	178.4%	59.3%	135.1%	84.1%	229.6%	
COc1ccc(C(=O)N2CCOC23CCN(S(=O)(=O)c2ccc(OC)cc2)CC3)cc1 [Compound C0019]	30.1%	38.2%	43.6%				59.1%	104.4%	52.8%	80.4%	68.1%	176.6%	
CN1CCC2(CC1)NC(=O)CN2Cc1ccccc1 [Compound C0104M]				51.4%	54.1%	55.2%							% DAMGO (0.1 μM) [2, 21]: 99.5%; MOR agonist activity, percent [35S]GTPγS binding at the stated compound concentration [2, 22]: 188.2%; MOR agonist activity, percent [35S]GTPγS binding at the stated compound concentration [2, 23]: 143.8%; % DAMGO + BFNA [2, 24]: 296.5%; % DAMGO (1 μM) [2, 25]: 96.3%; MOR agonist activity, percent [35S]GTPγS binding at the stated compound concentration [2, 26]: 238.9%
CC(=O)c1ccc(S(=O)(=O)N2CCC3(CC2)NC(=O)CO3)cc1 [Compound C0087M]				51.6%	57.9%	61.5%							% DAMGO (0.1 μM) [2, 21]: 138.9%; MOR agonist activity, percent [35S]GTPγS binding at the stated compound concentration [2, 22]: 262.8%; MOR agonist activity, percent [35S]GTPγS binding at the stated compound concentration [2, 23]: 142.5%; % DAMGO + BFNA [2, 24]: 293.8%; % DAMGO (1 μM) [2, 25]: 132.8%; MOR agonist activity, percent [35S]GTPγS binding at the stated compound concentration [2, 26]: 329.6%
COc1ccc(NC(=O)N2CCC3(CC2)OCCN3C(=O)Nc2ccc(OC)cc2)cc1 [Compound C0151M]	48.3%	51.7%	58.7%				201.6%	346.8%	212.8%	233.1%	122.0%	397.6%	
CC1CCC(C(C)C)C(OCC(O)CN2CCN(CCCN3CCOCC3)CC2)C1 (stereo not drawn) [Compound A0026]				36.4%	42.4%	49.2%							MOR agonist activity ([35S]GTPγS binding), FLNA-Binding Compound as Agonist 0.1 μM ([2]; 0.1 μM compound): 140.7%; % DAMGO (0.1 μM) [2, 27]: 79.7%; MOR agonist activity ([35S]GTPγS binding), FLNA-Binding Compound as Agonist 1 μM ([2]; 1 μM compound): 179.8%; MOR agonist activity ([35S]GTPγS binding), FLNA-Binding Compound as Agonist 1 μM + BFNA [2]: 120.8%; % DAMGO + BFNA [2, 28]: 459.3%; % DAMGO (1 μM) [2, 29]: 70.7%
COc1ccc(CCC(O)CC2c3c(cc4c(c3OC)OCO4)CCN2C)cc1 (stereo not drawn) [Compound B0048]				34.7%	41.9%	43.9%							% DAMGO (0.1 μM) [2, 6]: 104.8%; MOR agonist activity, percent [35S]GTPγS binding at the stated compound concentration [2, 7]: 185.1%; MOR agonist activity, percent [35S]GTPγS binding at the stated compound concentration [2, 8]: 78.5%; % DAMGO + BFNA [2, 9]: 298.5%; % DAMGO (1 μM) [2, 10]: 87.8%; MOR agonist activity, percent [35S]GTPγS binding at the stated compound concentration [2, 11]: 223.4%
CC1CCC(C(C)C)C(OCC(O)CN2CCOCC2)C1 (stereo not drawn) [Compound A0004]				40%	43.7%	47.6%							MOR agonist activity ([35S]GTPγS binding), FLNA-Binding Compound as Agonist 0.1 μM ([2]; 0.1 μM compound): 97.4%; % DAMGO (0.1 μM) [2, 27]: 55.2%; MOR agonist activity ([35S]GTPγS binding), FLNA-Binding Compound as Agonist 1 μM ([2]; 1 μM compound): 144.2%; MOR agonist activity ([35S]GTPγS binding), FLNA-Binding Compound as Agonist 1 μM + BFNA [2]: 86.0%; % DAMGO + BFNA [2, 28]: 130.9%; % DAMGO (1 μM) [2, 29]: 55.6%
CCCCc1ccc(S(=O)(=O)N2CCC3(CC2)OCCN3S(=O)(=O)c2ccc(CCCC)cc2)cc1 [Compound C0030]				37.4%	45.4%	56%	96.0%	150.3%	95.0%	291.4%	98.0%	226.8%	
COc1ccc(C(=O)CC2c3c(cc4c(c3OC)OCO4)CC[N+]2(C)C)c(F)c1 (stereo not drawn) [Compound B0027]	40.2%	46.7%	49.8%										% DAMGO (0.1 μM) [2, 6]: 82.3%; MOR agonist activity, percent [35S]GTPγS binding at the stated compound concentration [2, 7]: 140.9%; MOR agonist activity, percent [35S]GTPγS binding at the stated compound concentration [2, 8]: 21.6%; % DAMGO + BFNA [2, 9]: 41.5%; % DAMGO (1 μM) [2, 10]: 100.0%; MOR agonist activity, percent [35S]GTPγS binding at the stated compound concentration [2, 11]: 266.9%
CC(=O)c1ccc(S(=O)(=O)N2CCC3(CC2)OCCN3S(C)(=O)=O)cc1 [Compound C0056]				33.7%	38.9%	41.4%							% DAMGO (0.1 μM) [2, 21]: 68.0%; MOR agonist activity, percent [35S]GTPγS binding at the stated compound concentration [2, 22]: 98.6%; MOR agonist activity, percent [35S]GTPγS binding at the stated compound concentration [2, 23]: 86.3%; % DAMGO + BFNA [2, 24]: 196.1%; % DAMGO (1 μM) [2, 25]: 83.0%; MOR agonist activity, percent [35S]GTPγS binding at the stated compound concentration [2, 26]: 193.4%
CC(O)c1ccc(S(=O)(=O)N2CCC3(CC2)OCCN3S(=O)(=O)c2ccc(C(C)O)cc2)cc1 (stereo not drawn) [Compound C0051]	27%	30.4%	36.4%				65.1%	94.4%	55.9%	127.0%	73.1%	170.4%	
CC(=O)c1ccc(S(=O)(=O)N2CCC3(CC2)NC(=O)C(Cc2cnc[nH]2)N3S(=O)(=O)c2ccc(C(C)=O)cc2)cc1 (stereo not drawn) [Compound C0084M]	47.2%	53.7%	55.9%				97.3%	163.1%	133.2%	280.4%	114.9%	255.5%	
CCN(CC)CC(O)COC1CC(C)CCC1C(C)C (stereo not drawn) [Compound A0032]	43%	50.3%	54.5%										MOR agonist activity ([35S]GTPγS binding), FLNA-Binding Compound as Agonist 0.1 μM ([2]; 0.1 μM compound): 226.9%; % DAMGO (0.1 μM) [2, 27]: 115.6%; MOR agonist activity ([35S]GTPγS binding), FLNA-Binding Compound as Agonist 1 μM ([2]; 1 μM compound): 257.8%; MOR agonist activity ([35S]GTPγS binding), FLNA-Binding Compound as Agonist 1 μM + BFNA [2]: 133.0%; % DAMGO + BFNA [2, 28]: 180.0%; % DAMGO (1 μM) [2, 29]: 93.4%
CC1CCC(C(C)C)C(OCC(O)CN2CC(C)OC(C)C2)C1 (stereo not drawn) [Compound A3333]													Percent Binding Inhibition ([1]; FLNA-binding compound 0.01 μM): 40.4%; Percent Binding Inhibition ([1]; FLNA-binding compound 0.1 μM): 48.5%; Percent Binding Inhibition ([1]; FLNA-binding compound 1 μM): 54.2%; MOR agonist activity ([35S]GTPγS binding), FLNA-Binding Compound as Agonist 0.1 μM ([2]; 0.1 μM compound): 170.7%; % DAMGO (0.1 μM) [2, 27]: 88.9%; MOR agonist activity ([35S]GTPγS binding), FLNA-Binding Compound as Agonist 1 μM ([2]; 1 μM compound): 328.3%; MOR agonist activity ([35S]GTPγS binding), FLNA-Binding Compound as Agonist 1 μM + BFNA [2]: 65.9%; % DAMGO + BFNA [2, 28]: 136.7%; % DAMGO (1 μM) [2, 29]: 101.0%
